Results taken from patent EP2451450B1, “Inhibitors of proline racemase enzymes for the treatment of Trypanosoma spp infections” (Institut Pasteur, priority 2009, dated 2011).

Assays:
[1] = system: T.cruzi CL Brener (clone F11-F5); test: Intracellular parasite fate: inhibitor added after 17h infection, 48h, Giemsa scoring; format: cell-based; conditions: 48h after infection; for Mean number of parasites/ cell: 3,9 at 0; for % Infected cells: 39,3 at 0; for Number of parasites/100 cells: 153,15 at 0
Procedure: Vero cells (from green monkey kidney) were seeded at a density of 15x10^6 cells per 25cm^2 culture flasks or at 5 x10^4 cells/well into LabTek slides. The cultures were maintained in RPMI 1640 medium supplemented with 5% fetal bovine serum and kept at 37°C in an atmosphere of 5% CO2. Cell culture-derived trypomastigotes from T.cruzi CL Brener (clone F11-F5) were isolated from the supernatant of Vero cells, which had been previously infected with bloodstream trypomastigotes. Vero cell cultures were infected for 17h at 37°C with cultured trypomastigotes at a 10:1 parasite/cell ratio in the presence or in the absence of increasing doses of freshly made dilutions (3-30 µM) of (E)-4-oxopent-2-enoic acid (OxoPA) and its derivative (E)-5-bromo-4-oxopent-2-enoic acid (Br-OxoPA), previously dissolved in dimethyl sulfoxide (DMSO). For comparison, cultures were seeded with or without 10-1000 µM specific proline racemase inhibitor pyrrole-2-carboxylic acid (PYC) also diluted in DMSO. To verify if proline racemase inhibitors could also exert an effect on the parasite intracellular cycle after 17 hours of parasite-host cell interaction, all the wells were then rinsed three times to eliminate all extracellular parasites and new medium was added to the cultures that were incubated for up to 48 hours with fresh dilutions of the inhibitor compounds. After the different treatments, cultures were washed with PBS, fixed and stained with Giemsa. The numbers of infected host cells and of parasites per infected cell were then scored in at least 400 host cells in independent experiments, run in duplicate. Results are expressed as the percentage of infected cells, the mean number of parasites per infected cell or by the endocytic index (EI) which represents the percentage of infected cells multiplied by the mean number of parasites per infected cell.
Additional studies were performed to verify whether TcPRAC inhibition by the new compounds would influence the intracellular fate of the parasite. For this purpose, after infection for 17 hours, the host cells were washed and different ligand concentrations (3µM, 10 µM, 30 µM) were added to the medium and the infection was followed for up to 48 hours. As can be observed in Tables 4A, B and C, after 48 hours of culture treatments, there was a dose-dependent decrease in the number of parasites/ 100 cells, as well as in the percentage of infected cells or yet in the mean number of parasites/cell. […] Table 4A : Number of parasites/100 cells
Vero cells (from green monkey kidney) were seeded at a density of 15x10^6 cells per 25cm2 culture flasks or at 5x10^4 cells/well into LabTek slides. The cultures were maintained in RPMI 1640 medium supplemented with 5% fetal bovine serum and kept at 37°C in an atmosphere of 5% CO2. Cell culture-derived trypomastigotes from T.cruzi CL Brener (clone F11-F5) were isolated from the supernatant of Vero cells, which had been previously infected with bloodstream trypomastigotes. LabTek wells were infected for 17h at 37°C with cultured trypomastigotes at a 10:1 parasite/cell ratio. All the wells were then washed to eliminate all extracellular parasites and new medium was added to the cultures containing or not increasing concentrations of freshly made dilutions of 3-30 µM of OxoPA or Br-OxoPA molecules. Cultures were washed after 48h, fixed and stained with Giemsa.

TcPRAC = target: T1, TcPRAC (Trypanosoma cruzi, UniProt Q4DA80); test: L-proline racemization assay, formed D-proline determined by DAAOx test; format: biochemical; conditions: ligand 10 µM; 10 mM L-proline; 22.4 mg/ml TcPRAC; 5.0mM without ligand
T1 construct: implied only by nickel IMAC purification; made in house; host or cells: E. coli BL21 (DE3)
T1 sequence (Q4DA80 32-423): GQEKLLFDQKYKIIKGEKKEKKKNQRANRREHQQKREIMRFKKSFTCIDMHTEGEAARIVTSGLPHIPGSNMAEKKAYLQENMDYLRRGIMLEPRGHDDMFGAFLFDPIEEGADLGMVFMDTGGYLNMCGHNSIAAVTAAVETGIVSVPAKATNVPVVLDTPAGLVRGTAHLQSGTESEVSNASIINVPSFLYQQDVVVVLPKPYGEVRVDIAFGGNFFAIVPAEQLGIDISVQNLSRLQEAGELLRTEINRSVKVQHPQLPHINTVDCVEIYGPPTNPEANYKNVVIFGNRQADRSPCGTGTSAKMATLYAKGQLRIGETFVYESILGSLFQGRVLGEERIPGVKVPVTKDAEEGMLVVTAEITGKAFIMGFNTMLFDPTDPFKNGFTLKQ
Procedure: Briefly, classical assays of Proline racemization induced by TcPRAC were performed in tubes in a final volume of 1.5 ml and optical rotations measured in a polarimeter 241MC (Perkin Elmer). Parallel assays of Proline racemization were transposed into microplates in a final volume of 100 µl, as follows: serial dilutions of L- Proline ranging from 40 mM to 2.5 mM were prepared in 0.2 M sodium acetate pH 6.0 containing 0.25 mM rTcPRAC and loaded into microplate wells in the presence or in the absence of 0 - 20 µM pyrrole-2 carboxylic acid (PYC) or of similar dilutions of unknown potential inhibitors. Specific control wells were included omitting the TcPRAC and/or the PYC.
Microplates were incubated for 30 minutes at 37° C. Enzyme activity was then inactivated by heating the plate for 15 seconds in a microwave oven at 900 watts after shifting the pH of wells to 8.3 by addition of 6.8 µl of 0.235 M sodium Pyrophosphate. 50 µl of each well were used to test the presence of D-Proline using the DAAOx (D-amino acid oxidase) test described below. L- amino acids may react at very low rate with DAAOx. For instance, DAAOx reacts with L-Proline 300 times slower than D-Proline. Consequently, when assessing amino acid racemization products, standards should consist of serial dilution of equimolar mixtures of specific D- and L-amino acids ranging from 0 to 20 mM (10 mM final) to take into account any interference of possible reactivity with DAAOx of the L- form of amino acids present in the samples.
Solution A consisting of 0.2 M sodium acetate/0.016 M sodium pyrophosphate (Pop) buffer, pH 8.3 was used to prepare the enzyme stock solutions conserved in 50% glycerol, namely: 50 U/ml D-amino acid oxidase from pig kidney (DAAOx, Sigma) and 5000 U/ml Horse Raddish Peroxydase (HRP, Sigma). Stock solutions of L- proline (1M), D- proline (1M) and Pyrrole-2-carboxylic acid (10 mM) (PYC, Sigma) are also prepared in solution A. 10^-1 M FAD (Sigma) stock was prepared in water. Solution B consists in adding to solution A the following reagents at a final concentration in the assay of 1 U/ml for DAAOx, 0.5 mg/ml orthophenylenediamine (OPD, Sigma), 37.5 U/ml HRP and FAD (1.5x10^-5 M FAD). The test is run in 96 wells micro plates (Nunc, Denmark). […] OD 490nm - 650nm is obtained with a microtiter plate reader (Molecular Devices), and compared to those obtained with blank control wells.
The values presented in Table 2A correspond to racemization reactions performed in the absence or in the presence of 10 µM concentration of the different ligands. […] Briefly, 22.4 mg/ml of active TcPRAC was used in the racemization assays of 10 mM L-proline substrate and the concentration of formed D-proline was determined by the DAAOx test, as described in the Material and Methods. […]

Vero cells = test: Toxicity for Vero cells, Trypan Blue exclusion; format: cell-based, green monkey; conditions: 10 µM, 48h
Procedure: Finally both the compounds OxoPA and Br-OxoPA were tested at a concentration of 10 µM for toxicity of Vero cells for 48h. Both compounds are not toxic as evaluated by Trypan Blue exclusion (not shown).

Row | SMILES | Mean number of parasites/ cell ([1]; 3 µM) | % Infected cells ([1]; 3 µM) | Number of parasites/100 cells ([1]; 3 µM) | Mean number of parasites/ cell ([1]; 10 µM) | % Infected cells ([1]; 10 µM) | Number of parasites/100 cells ([1]; 10 µM) | Mean number of parasites/ cell ([1]; 30 µM) | % Infected cells ([1]; 30 µM) | Number of parasites/100 cells ([1]; 30 µM) | Formed D-Proline (TcPRAC) | toxicity of Vero cells (Vero cells)
1 | O=C(O)/C=C/C(=O)CBr [Br-OxoPA, (E)-5-bromo-4-oxopent-2-enoic acid] | 3,2 | 55,3% | 176,5 | 3,1 | 49,8% | 155,8 | 2,3 | 31,0% | 69,4 | < 0,3 mM | not toxic
2 | CC(=O)/C=C/C(=O)O [OxoPA, (E)-4-oxopent-2-enoic acid] | 2,9 | 41,3% | 121,3 | 3,0 | 41,3% | 129,4 | 2,8 | 20,0% | 56,1 | < 0,3 mM | not toxic
